# From ChEMBL document CHEMBL1201861, “Genomics of Drug Sensitity in Cancer screening data, Wellcome Trust Sanger Institute”
# Experiments:
# Assay in all cases: cells
# COR-L23 = type: functional, cell-based, Homo sapiens; settings: Homo sapiens, COR-L23;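 also: cell viability assay measuring how strongly compounds suppress growth of COR-L23 cells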
# Description: SANGER: Inhibition of human COR-L23 cell growth in a cell viability assay.
# CaR-1 = type: functional, cell-based, Homo sapiens; settings: Homo sapiens, CaR-1;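 also: growth inhibition of human CaR-1 cancer cells, read out with a cell viability assay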
# Description: SANGER: Inhibition of human CaR-1 cell growth in a cell viability assay.
# D-502MG = type: functional, cell-based, Homo sapiens; settings: Homo sapiens, D-502MG
# Description: SANGER: Inhibition of human D-502MG cell growth in a cell viability assay.
# DEL = type: functional, cell-based; settings: Homo sapiens;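 also: growth inhibition of the human DEL cell line, read out with a cell viability assay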
# Description: SANGER: Inhibition of human DEL cell growth in a cell viability assay.
# DMS-273 = type: functional, cell-based, Homo sapiens; settings: Homo sapiens, DMS-273
# Description: SANGER: Inhibition of human DMS-273 cell growth in a cell viability assay.
# EW-1 = type: functional, cell-based, Homo sapiens; settings: Homo sapiens, EW-1;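 also: growth inhibition of the human EW-1 cell line, read out by a cell viability assay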
# Description: SANGER: Inhibition of human EW-1 cell growth in a cell viability assay.
# FaDu = type: functional, cell-based, Homo sapiens; settings: Homo sapiens, FaDu;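 also: cell viability readout of growth inhibition in FaDu cells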
# Description: SANGER: Inhibition of human FADU cell growth in a cell viability assay.
# GCT = type: functional, cell-based, Homo sapiens; settings: Homo sapiens, GCT;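 also: GCT cell line proliferation inhibition, read out with a cell viability assay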
# Description: SANGER: Inhibition of human GCT cell growth in a cell viability assay.
# GT3TKB = type: functional, cell-based, Homo sapiens; settings: Homo sapiens, GT3TKB;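 also: growth inhibition of the cell line, read out with a cell viability assay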
# Description: SANGER: Inhibition of human GT3TKB cell growth in a cell viability assay.
# HCC1806 = type: functional, cell-based, Homo sapiens; settings: Homo sapiens, HCC1806;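 also: growth inhibition of the cancer cell line, determined with a cell viability assay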
# Description: SANGER: Inhibition of human HCC1806 cell growth in a cell viability assay.
# HCC1954 = type: functional, cell-based, Homo sapiens; settings: Homo sapiens, HCC1954;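 also: growth inhibition of human HCC1954 cells, read out with a cell viability assay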
# Description: SANGER: Inhibition of human HCC1954 cell growth in a cell viability assay.
# Huh-7 = type: functional, cell-based, Homo sapiens; settings: Homo sapiens, Huh-7;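 also: HuH-7 cell growth inhibition, read out with a cell viability assay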
# Description: SANGER: Inhibition of human HuH-7 cell growth in a cell viability assay.
# IST-MEL1 = type: functional, cell-based, Homo sapiens; settings: Homo sapiens, IST-MEL1;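 also: growth inhibition of the cell line, read out with a cell viability assay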
# Description: SANGER: Inhibition of human IST-MEL1 cell growth in a cell viability assay.
# IST-SL1 = type: functional, cell-based, Homo sapiens; settings: Homo sapiens, IST-SL1;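 also: growth inhibition of human IST-SL1 cells, read out with a cell viability assay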
# Description: SANGER: Inhibition of human IST-SL1 cell growth in a cell viability assay.
# KALS-1 = type: functional, cell-based, Homo sapiens; settings: Homo sapiens, KALS-1;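 also: growth inhibition of KALS-1 cells, determined with a cell viability assay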
# Description: SANGER: Inhibition of human KALS-1 cell growth in a cell viability assay.
# KOSC-2 = type: functional, cell-based, Homo sapiens; settings: Homo sapiens, KOSC-2;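 also: growth inhibition of KOSC-2 cells, read out by a cell viability assay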
# Description: SANGER: Inhibition of human KOSC-2 cell growth in a cell viability assay.
# KYSE-180 = type: functional, cell-based, Homo sapiens; settings: Homo sapiens, KYSE-180;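 also: growth inhibition of KYSE-180 cells, read out with a cell viability assay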
# Description: SANGER: Inhibition of human KYSE-180 cell growth in a cell viability assay.
# M14 = type: functional, cell-based, Homo sapiens; settings: Homo sapiens, M14;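 also: growth inhibition of M14 cells, read out with a cell viability assay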
# Description: SANGER: Inhibition of human M14 cell growth in a cell viability assay.
# MDA-MB-453 = type: functional, cell-based, Homo sapiens; settings: Homo sapiens, MDA-MB-453
# Description: SANGER: Inhibition of human MDA-MB-453 cell growth in a cell viability assay.
# ME-180 = type: functional, cell-based; settings: Homo sapiens;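 also: cell viability assay measuring growth inhibition of ME-180 cells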
# Description: SANGER: Inhibition of human ME-180 cell growth in a cell viability assay.
# MFM-223 = type: functional, cell-based, Homo sapiens; settings: Homo sapiens, MFM-223
# Description: SANGER: Inhibition of human MFM-223 cell growth in a cell viability assay.
# MHH-ES-1 = type: functional, cell-based, Homo sapiens; settings: Homo sapiens, MHH-ES-1;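 also: cell growth inhibition measured by a cell viability assay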
# Description: SANGER: Inhibition of human MHH-ES-1 cell growth in a cell viability assay.
# MMAC-SF = type: functional, cell-based, Homo sapiens; settings: Homo sapiens, MMAC-SF;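 also: growth inhibition of human MMAC-SF cells, read out with a cell viability assay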
# Description: SANGER: Inhibition of human MMAC-SF cell growth in a cell viability assay.
# MS-1 = type: functional, cell-based; settings: Homo sapiens;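 also: growth inhibition of MS-1 cells, read out by cell viability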
# Description: SANGER: Inhibition of human MS-1 cell growth in a cell viability assay.
# NB17 = type: functional, cell-based; settings: Homo sapiens;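 also: growth inhibition of NB17 cells, read out with a cell viability assay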
# Description: SANGER: Inhibition of human NB17 cell growth in a cell viability assay.
# NCI-H1304 = type: functional, cell-based; settings: Homo sapiens;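 also: growth inhibition of the cancer cell line, measured in a cell viability assay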
# Description: SANGER: Inhibition of human NCI-H1304 cell growth in a cell viability assay.
# NCI-H1355 = type: functional, cell-based, Homo sapiens; settings: Homo sapiens, NCI-H1355;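 also: growth inhibition of human NCI-H1355 cells, read out by a cell viability assay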
# Description: SANGER: Inhibition of human NCI-H1355 cell growth in a cell viability assay.
# NCI-H2122 = type: functional, cell-based, Homo sapiens; settings: Homo sapiens, NCI-H2122;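 also: growth inhibition of the cells, read out with a cell viability assay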
# Description: SANGER: Inhibition of human NCI-H2122 cell growth in a cell viability assay.
# NUGC-3 = type: functional, cell-based, Homo sapiens; settings: Homo sapiens, NUGC-3;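 also: growth inhibition of human NUGC-3 cells, read out with a cell viability assay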
# Description: SANGER: Inhibition of human NUGC-3 cell growth in a cell viability assay.
# OAW-28 = type: functional, cell-based, Homo sapiens; settings: Homo sapiens, OAW-28;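 also: growth inhibition of OAW-28 cells, read out with a cell viability assay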
# Description: SANGER: Inhibition of human OAW-28 cell growth in a cell viability assay.
# P12-Ichikawa = type: functional, cell-based; settings: Homo sapiens
# RMG-I = type: functional, cell-based, Homo sapiens; settings: Homo sapiens, RMG-I;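 also: growth inhibition of human RMG-I cells, read out with a cell viability assay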
# Description: SANGER: Inhibition of human RMG-I cell growth in a cell viability assay.
# RO82-W-1 = type: functional, cell-based, Homo sapiens; settings: Homo sapiens, RO82-W-1;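 also: growth inhibition of human RO82-W-1 cells, measured with a cell viability assay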
# Description: SANGER: Inhibition of human RO82-W-1 cell growth in a cell viability assay.
# RPMI-8866 = type: functional, cell-based; settings: Homo sapiens
# Description: SANGER: Inhibition of human RPMI-8866 cell growth in a cell viability assay.
# RS4-11 = type: functional, cell-based; settings: Homo sapiens;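 also: growth inhibition of RS4-11 cells, read out by a cell viability assay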
# Description: SANGER: Inhibition of human RS4-11 cell growth in a cell viability assay.
# SAS = type: functional, cell-based, Homo sapiens; settings: Homo sapiens, SAS;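 also: growth inhibition of SAS cells, read out with a cell viability assay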
# Description: SANGER: Inhibition of human SAS cell growth in a cell viability assay.
# SBC-1 = type: functional, cell-based; settings: Homo sapiens;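 also: cell viability assay measuring growth inhibition of the SBC-1 cell line, IC50 being the concentration that halves growth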
# Description: SANGER: Inhibition of human SBC-1 cell growth in a cell viability assay.
# SK-UT-1 = type: functional, cell-based, Homo sapiens; settings: Homo sapiens, SK-UT-1;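 also: growth inhibition of SK-UT-1 cells, measured by a cell viability assay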
# Description: SANGER: Inhibition of human SK-UT-1 cell growth in a cell viability assay.
# SW756 = type: functional, cell-based, Homo sapiens; settings: Homo sapiens, SW756;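 also: growth inhibition of human SW756 cells, read out with a cell viability assay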
# Description: SANGER: Inhibition of human SW756 cell growth in a cell viability assay.
# SAOS-2 = type: functional, cell-based, Homo sapiens; settings: Homo sapiens, SAOS-2;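 also: growth inhibition of human Saos-2 cells determined by a cell viability assay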
# Description: SANGER: Inhibition of human Saos-2 cell growth in a cell viability assay.
# A101D = type: functional, cell-based, Homo sapiens; settings: Homo sapiens, A101D;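 also: growth inhibition of the cell line, measured with a viability assay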
# Description: SANGER: Inhibition of human A101D cell growth in a cell viability assay.
# A4-Fuk = type: functional, cell-based; settings: Homo sapiens;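 also: growth inhibition of A4-Fuk cells, read out by a cell viability assay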
# Description: SANGER: Inhibition of human A4-Fuk cell growth in a cell viability assay.
# A498 = type: functional, cell-based, Homo sapiens; settings: Homo sapiens, A498;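 also: growth inhibition of human A498 cells, read out with a cell viability assay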
# Description: SANGER: Inhibition of human A498 cell growth in a cell viability assay.
# BCPAP = type: functional, cell-based, Homo sapiens; settings: Homo sapiens, BCPAP;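 also: growth inhibition of BCPAP cells, read out in a cell viability assay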
# Description: SANGER: Inhibition of human BCPAP cell growth in a cell viability assay.
# BHY = type: functional, cell-based, Homo sapiens; settings: Homo sapiens, BHY;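 also: cell growth inhibition read out by a viability assay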
# Description: SANGER: Inhibition of human BHY cell growth in a cell viability assay.
# BPH-1 = type: functional, cell-based, Homo sapiens; settings: Homo sapiens, BPH-1;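 also: cell viability assay measuring growth inhibition of human BPH-1 cells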
# Description: SANGER: Inhibition of human BPH-1 cell growth in a cell viability assay.
# CAKI-1 = type: functional, cell-based, Homo sapiens; settings: Homo sapiens, CAKI-1;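 also: growth inhibition of CAKI-1 cells, measured by a cell viability assay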
# Description: SANGER: Inhibition of human CAKI-1 cell growth in a cell viability assay.
# TE-11 = type: functional, cell-based, Homo sapiens; settings: Homo sapiens, TE-11;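 also: growth inhibition of human TE-11 cells, read out by a cell viability assay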
# Description: SANGER: Inhibition of human TE-11 cell growth in a cell viability assay.
# UACC-62 = type: functional, cell-based, Homo sapiens; settings: Homo sapiens, UACC-62;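 also: growth inhibition of human UACC-62 cells, read out by a cell viability assay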
# Description: SANGER: Inhibition of human UACC-62 cell growth in a cell viability assay.
# VA-ES-BJ = type: functional, cell-based, Homo sapiens; settings: Homo sapiens, VA-ES-BJ;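 also: growth inhibition of the VA-ES-BJ cell line, read out by a cell viability assay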
# Description: SANGER: Inhibition of human VA-ES-BJ cell growth in a cell viability assay.
# SK-OV-3 = type: functional, cell-based, Homo sapiens; settings: Homo sapiens, SK-OV-3;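 also: growth inhibition of SK-OV-3 human cells, read out with a cell viability assay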
# Description: SANGER: Inhibition of human SK-OV-3 cell growth in a cell viability assay.
structure (smiles),measurement,setting,value
CN(Cc1cnc2nc(N)nc(N)c2n1)c1ccc(C(=O)N[C@@H](CCC(=O)O)C(=O)O)cc1 [METHOTREXATE],IC50,COR-L23,0.122 µM
same,IC50,CaR-1,> 0.2 µM
same,IC50,D-502MG,> 0.2 µM
same,IC50,DEL,0.00312 µM
same,IC50,DMS-273,> 0.2 µM
same,IC50,EW-1,0.168 µM
same,IC50,FaDu,> 0.2 µM
same,IC50,GCT,> 0.2 µM
same,IC50,GT3TKB,> 0.2 µM
same,IC50,HCC1806,> 0.2 µM
same,IC50,HCC1954,> 0.2 µM
same,IC50,Huh-7,> 0.2 µM
same,IC50,IST-MEL1,0.126 µM
same,IC50,IST-SL1,> 0.2 µM
same,IC50,KALS-1,> 0.2 µM
same,IC50,KOSC-2,> 0.2 µM
same,IC50,KYSE-180,> 0.2 µM
same,IC50,M14,> 0.2 µM
same,IC50,MDA-MB-453,> 0.2 µM
same,IC50,ME-180,> 0.2 µM
same,IC50,MFM-223,> 0.2 µM
same,IC50,MHH-ES-1,0.107 µM
same,IC50,MMAC-SF,> 0.2 µM
same,IC50,MS-1,0.0453 µM
same,IC50,NB17,> 0.2 µM
same,IC50,NCI-H1304,> 0.2 µM
same,IC50,NCI-H1355,> 0.2 µM
same,IC50,NCI-H2122,0.151 µM
same,IC50,NUGC-3,> 0.2 µM
same,IC50,OAW-28,> 0.2 µM
same,IC50,P12-Ichikawa,0.0413 µM
same,IC50,RMG-I,> 0.2 µM
same,IC50,RO82-W-1,> 0.2 µM
same,IC50,RPMI-8866,0.02 µM
same,IC50,RS4-11,0.00705 µM
same,IC50,SAS,> 0.2 µM
same,IC50,SBC-1,> 0.2 µM
same,IC50,SK-UT-1,> 0.2 µM
same,IC50,SW756,> 0.2 µM
same,IC50,SAOS-2,> 0.2 µM
same,IC50,A101D,> 0.2 µM
same,IC50,A4-Fuk,0.0382 µM
same,IC50,A498,> 0.2 µM
same,IC50,BCPAP,0.0431 µM
same,IC50,BHY,> 0.2 µM
same,IC50,BPH-1,> 0.2 µM
same,IC50,CAKI-1,> 0.2 µM
same,IC50,TE-11,> 0.2 µM
same,IC50,UACC-62,> 0.2 µM
same,IC50,VA-ES-BJ,> 0.2 µM
O=C(c1cc(Cc2n[nH]c(=O)c3ccccc23)ccc1F)N1CCN(C(=O)C2CC2)CC1 [OLAPARIB],IC50,COR-L23,> 5 µM
same,IC50,CaR-1,> 5 µM
same,IC50,D-502MG,> 5 µM
same,IC50,DEL,> 5 µM
same,IC50,DMS-273,> 5 µM
same,IC50,EW-1,> 5 µM
same,IC50,FaDu,> 5 µM
same,IC50,GCT,> 5 µM
same,IC50,GT3TKB,> 5 µM
same,IC50,HCC1806,> 5 µM
same,IC50,HCC1954,> 5 µM
same,IC50,Huh-7,> 5 µM
same,IC50,IST-MEL1,> 5 µM
same,IC50,IST-SL1,> 5 µM
same,IC50,KALS-1,> 5 µM
same,IC50,KOSC-2,> 5 µM
same,IC50,KYSE-180,> 5 µM
same,IC50,M14,> 5 µM
same,IC50,MDA-MB-453,> 5 µM
same,IC50,ME-180,> 5 µM
same,IC50,MFM-223,> 5 µM
same,IC50,MHH-ES-1,1.62 µM
same,IC50,MMAC-SF,> 5 µM
same,IC50,MS-1,> 5 µM
same,IC50,NB17,> 5 µM
same,IC50,NCI-H1304,> 5 µM
same,IC50,NCI-H1355,> 5 µM
same,IC50,NCI-H2122,> 5 µM
same,IC50,NUGC-3,> 5 µM
same,IC50,OAW-28,> 5 µM
same,IC50,P12-Ichikawa,> 5 µM
same,IC50,RMG-I,> 5 µM
same,IC50,RO82-W-1,> 5 µM
same,IC50,RPMI-8866,> 5 µM
same,IC50,RS4-11,> 5 µM
same,IC50,SAS,> 5 µM
same,IC50,SBC-1,4.81 µM
same,IC50,SK-UT-1,> 5 µM
same,IC50,SW756,> 5 µM
same,IC50,SAOS-2,> 5 µM
same,IC50,A101D,> 5 µM
same,IC50,A4-Fuk,> 5 µM
same,IC50,A498,> 5 µM
same,IC50,BCPAP,> 5 µM
same,IC50,BHY,> 5 µM
same,IC50,BPH-1,> 5 µM
same,IC50,CAKI-1,> 5 µM
same,IC50,TE-11,> 5 µM
same,IC50,UACC-62,> 5 µM
same,IC50,VA-ES-BJ,> 5 µM
Cn1cc(C2=C(c3ccc(Cl)cc3Cl)C(=O)NC2=O)c2ccccc21 [SB-216763],IC50,COR-L23,> 10 µM
same,IC50,CaR-1,> 10 µM
same,IC50,D-502MG,> 10 µM
same,IC50,DEL,> 10 µM
same,IC50,DMS-273,> 10 µM
same,IC50,EW-1,> 10 µM
same,IC50,FaDu,> 10 µM
same,IC50,GCT,> 10 µM
same,IC50,GT3TKB,> 10 µM
same,IC50,HCC1806,> 10 µM
same,IC50,HCC1954,> 10 µM
same,IC50,Huh-7,> 10 µM
same,IC50,IST-MEL1,> 10 µM
same,IC50,IST-SL1,9.02 µM
same,IC50,KALS-1,> 10 µM
same,IC50,KOSC-2,> 10 µM
same,IC50,KYSE-180,> 10 µM
same,IC50,M14,> 10 µM
same,IC50,MDA-MB-453,> 10 µM
same,IC50,ME-180,> 10 µM
same,IC50,MFM-223,> 10 µM
same,IC50,MHH-ES-1,> 10 µM
same,IC50,MMAC-SF,> 10 µM
same,IC50,MS-1,> 10 µM
same,IC50,NB17,> 10 µM
same,IC50,NCI-H1304,> 10 µM
same,IC50,NCI-H1355,> 10 µM
same,IC50,NCI-H2122,> 10 µM
same,IC50,NUGC-3,> 10 µM
same,IC50,OAW-28,> 10 µM
same,IC50,P12-Ichikawa,> 10 µM
same,IC50,RMG-I,> 10 µM
same,IC50,RO82-W-1,> 10 µM
same,IC50,RPMI-8866,> 10 µM
same,IC50,RS4-11,8.24 µM
same,IC50,SAS,> 10 µM
same,IC50,SBC-1,> 10 µM
same,IC50,SK-OV-3,9.1 µM
same,IC50,SK-UT-1,> 10 µM
same,IC50,SAOS-2,> 10 µM
same,IC50,A101D,> 10 µM
same,IC50,A4-Fuk,> 10 µM
same,IC50,A498,> 10 µM
same,IC50,BCPAP,> 10 µM
same,IC50,BHY,> 10 µM
same,IC50,BPH-1,> 10 µM
same,IC50,CAKI-1,> 10 µM
same,IC50,TE-11,> 10 µM
same,IC50,UACC-62,> 10 µM
same,IC50,VA-ES-BJ,> 10 µM
